# Laboratory results: PMC9030166, “Natural Phaeosphaeride A Derivatives Overcome Drug Resistance of Tumor Cells and Modulate Signaling Pathways” (Pharmaceuticals, 2022)
# What was measured:
# NCI-H929 = test: MTT cytotoxicity, NCI-H929 multiple myeloma cells; type: cell-based; details: Homo sapiens, suspension culture, 48 h
# From the text: (§1) Cell cultures used in the work: adhesive cultures HBL-100 cells (cells of a normal mammary gland epithelium, immortalized by the SV40 virus and acquired tumorigenicity); MCF-7 breast cancer cells; PC-3 prostate adenocarcinoma cells; HCT-116 colorectal cancer cells; non-small cell lung cancer cells A549; human embryonic kidney cells HEK293; suspension cultures (NCI-H929 and RPMI8226 multiple myeloma cells), K562 chronic myeloid leukemia cells; THP-1 acute monocytic leukemia cells; and Jurkat acute T-cell leukemia cells. We also used several primary cultures of soft tissue sarcomas at 3–4passeges, kindly provided by T.I. Fetisov (The Ethics Committee of N.N. Blokhin NMRCO, protocol code 18-28-09095 and date of approval 28 September 2018).
# (§2) Modifications of cell lines: K562/i-S9 is a clone obtained after transfection of K562 cells with the ABCB1 (MDR1) gene-encoding P-glycoprotein [36]. Cells HBL-100/Dox and K562/i-S9_Dox are cells obtained by long-term selection with increasing concentrations of doxorubicin (Sigma-Aldrich, St. Louis, MO, USA) from HBL-100 and K562/i-S9 cells, respectively. MCF-7, A594 cells, and primary cultures of soft tissue sarcomas were cultured in DMEM medium (PanEko, Russia), PC-3 and HCT-116 cells and all suspension cultures in RPMI1640 medium (PanEko, Russia) supplemented with 10% fetal bovine serum (GE Healthcare LifeSciences, USA), and gentamicin at a concentration of 40 μg/mL at 37 °C and 5% CO2.
# (§3) Cells MCF-7, PC-3, A549, and HCT-116, and primary cultures of STSwere seeded in 96-well plates, 6 × 10^3 cells per well in 90 μL of culture medium. Suspension cultures were seeded at a concentration of 25 × 10^3 cells per well in 135 μL of medium. The test substances were dissolved in DMSO (Applichem, Council Bluffs, IA, USA) until a concentration of 1 × 10^−^2 M was obtained; for the subsequent dilution of the substances, a serum-free culture medium was used. The next day, for adhesive cultures, and on the same day, for suspension cultures, substances were added to the plates in a volume of 10 μL (adhesive cultures) and 15 μL (suspension cultures) per well at various concentrations; each concentration was added in 3–4 repetitions. The cells were cultured in the presence of substances for 48 h. Then, MTT reagent (PanEko, Moscow, Russia) was added to the wells at a concentration of 5 mg/mL in a volume of 20 μL per well. After 1.5–2 h, the medium with the reagent was removed, and the precipitate of the crystals of formazan was dissolved in 60 μL of DMSO. The optical density was determined using a Multiskan FC spectrophotometer (Thermo Scientific, Waltham, MA, USA) at a wavelength of 540 nm.
# (§4) Based on the results of the experiments, a schedule was plotted of the dependence of the percentage of surviving cells (from control) on the concentration of the compound, and the sought concentration IC50 was calculated. The experiments were carried out in 3–4 times.
# Jurkat = test: MTT cytotoxicity, Jurkat acute T-cell leukemia cells; type: cell-based; details: Homo sapiens, suspension culture, 48 h
# From the text: as §1, §2, §3, §4
# HBL-100 = test: MTT cytotoxicity, sensitive HBL-100 cells; type: cell-based; details: Homo sapiens, 48 h
# From the text: as §1, §3, §4
# Akt (pSer473) = test: MILLIPLEX MAP 9-Plex, Akt active form in A431 lysates; type: cell-based, human; details: A431 cell lysates, 10 μM, 1 h, M ± mx; control 76.4 ± 16.9
# From the text: (§5) We used the MILLIPLEX MAP Multi-Pathway Magnetic Bead 9-Plex-Cell Signaling Multiplex Assay, which allows the simultaneous detection of nine phosphorylated proteins that are markers of the main intracellular signaling pathways (phosphorylation site is indicated in parentheses), a universal transcription factor that controls the expression of immune response genes; apoptosis and cell cycle NFκB (pS536); cAMP-dependent transcription factor (CREB (pS133); mitogen-activated kinase p38 (pT180/pY182); stress-activated protein kinase JNK (pT183/pY185); ribosomal […]; transcription factors STAT3 (pS727) and STAT5A/B (pY694/699); protein kinase B (Akt) (pS473); and kinase regulated by extracellular signals ERK1/2 (pT185/pY187).
# (§6) The effect of various concentrations of PPA derivatives on the cell culture was studied using xCelligence RTCA equipment (AceaBioscience, San Diego, CA, USA). The concentration closest to the IC50 (10 μM) was chosen as the experimental concentration. The selected concentration of phaeosphaeride A derivatives allows for the assessment of the early effect of compounds on cells and compares their effectiveness. In this experiment, the signaling pathways Akt (pSer473), p70S6K (pThr412), NFkB (p65-pSer536), and CREB (pSer133) were not activated (Table 8). The stress-activated signaling pathways ERK/MAP kinase 1/2 (pThr185/pTyr187), JNK (pThr183/pTyr185), and p38 (pThr180/pTyr182) were activated for these compounds.
# (§7) We used a MILLIPLEX MAP Multi-Pathway Magnetic Bead 9-Plex-Cell Signaling Multiplex Assay kit (Merck/Millipore), according to the manufacturer’s protocol. A431 cells were cultured in DMEM with 10% FBS in 24-well plates. Compounds were added to the subconfluent cells at a concentration of 10 μM in DMEM medium for 1 h. Each compound was added in 5 experimental repeats. Cell lysates were prepared with lysis buffer (Millipore) with protease inhibitors (Complete, Roche); the protein concentration in the lysates was determined by the Lowry method. In samples equalized in protein concentration, the active forms of kinase cascades were determined using a Bio-Plex 200 fluorescent analyzer (Bio-Rad).
# p38 (pThr180/pTyr182) = test: MILLIPLEX MAP 9-Plex, p38 active form in A431 lysates; type: cell-based, human; details: 10 μM; for p38 (pThr180/pTyr182) fluorescence intensity: A431 cell lysates, M ± mx, control 567.7 ± 266.6; for p38 (pThr180/pTyr182) fluorescence intensity / increase of fluorescence intensity of the active form p38: 1 h; for increase of fluorescence intensity of the active form p38 / activation of signaling pathway p38 (pThr180/pTyr182), in words: A431 cells; for increase of fluorescence intensity of the active form p38: versus control
# From the text: as §5, §6, §7
smiles,measurement,setting,value
C=C1C2=C(C(=O)N1OC)[C@@H](N1CCCC1)[C@@](C)(O)[C@H](CCCCC)O2 [Compound 1],IC50,NCI-H929,700 ± 200 nM
same,IC50,Jurkat,1500 ± 400 nM
same,IC50,HBL-100,6200 ± 800 nM
same,Akt (pSer473) fluorescence intensity,Akt (pSer473),112.6 ± 12.0 rel. units
same,p38 (pThr180/pTyr182) fluorescence intensity,p38 (pThr180/pTyr182),2349.9 ± 755.5 rel. units
same,increase of fluorescence intensity of the active form p38,p38 (pThr180/pTyr182),1.5–3 times
"C=C1C2=C(C(=O)N1OC)[C@@H](N(C)C)[C@@](C)(O)[C@H](CCCCC)O2 [Compound 2, (2S,3R,4R)-4-(dimethylamino)-3-hydroxy-6-methoxy-3-methyl-7-methylene-2-pentyl-3,4,6,7-tetrahydropyrano[2,3-c]pyrrol-5(2H)-one]",IC50,NCI-H929,500 ± 100 nM
same,IC50,Jurkat,1100 ± 100 nM
same,IC50,HBL-100,4900 ± 1000 nM
same,Akt (pSer473) fluorescence intensity,Akt (pSer473),132.4 ± 17.9 rel. units
same,p38 (pThr180/pTyr182) fluorescence intensity,p38 (pThr180/pTyr182),2795.4 ± 572.0 *↑ rel. units
same,"activation of signaling pathway p38 (pThr180/pTyr182), in words",p38 (pThr180/pTyr182),maximum degree of activation
same,increase of fluorescence intensity of the active form p38,p38 (pThr180/pTyr182),1.5–3 times
"C=C1C2=C(C(=O)N1OC)[C@@H](N(CCCC)CCCC)[C@@](C)(O)[C@H](CCCCC)O2 [Compound 5, (2S,3R,4R)-4-(dibutylamino)-3-hydroxy-6-methoxy-3-methyl-7-methylene-2-pentyl-3,4,6,7-tetrahydropyrano[2,3-c]pyrrol-5(2H)-one]",IC50,NCI-H929,2900 ± 300 nM
same,IC50,Jurkat,3700 ± 200 nM
same,Akt (pSer473) fluorescence intensity,Akt (pSer473),100.9 ± 11.7 rel. units
same,p38 (pThr180/pTyr182) fluorescence intensity,p38 (pThr180/pTyr182),1245.9 ± 342.8 rel. units
same,"activation of signaling pathway p38 (pThr180/pTyr182), in words",p38 (pThr180/pTyr182),only slightly activated
"C=C1C2=C(C(=O)N1OC)[C@@H](N(CC)CCO)[C@@](C)(O)[C@H](CCCCC)O2 [Compound 9, (2S,3R,4R)-4-[ethyl(2-hydroxyethyl)amino]-3-hydroxy-6-methoxy-3-methyl-7-methylene-2-pentyl-3,4,6,7-tetrahydropyrano[2,3-c]pyrrol-5(2H)-one]",IC50,NCI-H929,600 ± 200 nM
same,IC50,Jurkat,1300 ± 400 nM
same,IC50,HBL-100,6500 ± 800 nM
same,Akt (pSer473) fluorescence intensity,Akt (pSer473),88.8 ± 10.7 rel. units
same,p38 (pThr180/pTyr182) fluorescence intensity,p38 (pThr180/pTyr182),657.1 ± 287.5 rel. units
same,increase of fluorescence intensity of the active form p38,p38 (pThr180/pTyr182),1.5–3 times
CCCCC[C@@H]1OC2=C(C(=O)N(OC)/C2=C\n2cnnc2)C(n2cnnc2)[C@@]1(C)O (some centres unmarked) [Compound 10],IC50,NCI-H929,5600 ± 700 nM
same,IC50,Jurkat,94000 ± 22600 nM
same,Akt (pSer473) fluorescence intensity,Akt (pSer473),142.1 ± 9.5 *↑ rel. units
same,p38 (pThr180/pTyr182) fluorescence intensity,p38 (pThr180/pTyr182),1783.6 ± 181.9 *↑ rel. units
same,"activation of signaling pathway p38 (pThr180/pTyr182), in words",p38 (pThr180/pTyr182),only slightly activated
